Source: patent US20110003692A1, “HERBICIDALLY AND INSECTICIDALLY ACTIVE PHENYL-SUBSTITUTED PYRIDAZINONES” (BAYER CROPSCIENCE AG, priority 2008, published 2011)

Columns and labels:
[1] = tested on: eggs from the tobacco budworm (Heliotis virescens); experiment: Heliothis virescens test (spray treatment); type: in vivo; conditions: application rate 500 g/ha, spray on soybean leaves, after 7 days
Procedure: • 78.0 parts by weight of acetone • 1.5 parts by weight of dimethylformamide Emulsifier: 0.5 part by weight of alkylaryl polyglycol ether
To produce a suitable preparation of active compound, 1 part by weight of active compound is mixed with the stated amounts of solvents and emulsifier, and the concentrate is diluted with emulsifier-containing water to the desired concentration. Soybean leaves (Glycine max.) are sprayed with an active compound preparation of the desired concentration and populated with eggs from the tobacco budworm (Heliotis virescens). After 7 days, the effect in % is determined. 100% means that all eggs have been killed, 0% means that no eggs have been killed.

Structure (SMILES) | effect in % (eggs killed) [1] | melting point [°C]
CC(C)(C)n1ncc(O)c(-c2ccc(Cl)cc2Cl)c1=O [I-1-a-5] | at least 80% | 
COc1cnn(C)c(=O)c1-c1ccc(Cl)c(Cl)c1 [I-1-h-1, 4-(3,4-dichlorophenyl)-5-methoxy-2-methyl-3(2H)-pyridazinone] |  | 176
